# From patent publication US20200022386A1, “METHOD OF PREPARATION OF CA[…]” (PHARCON INC., priority 2018, published 2020)
# Assay: Solubility of cannabinoids / cannabis extract in ethanol
# Type: physicochemical
# Details: organic solvent or mixture, room temperature, ethyl alcohol (solvent named)
# Source text: Cannabinoids have extremely low water solubility and relatively high solubility in oils and polar organic solvents such as ethanol and propylene glycol. Micro- and nanoemulsions or liposomal formulations where cannabinoids incorporated into lipid phase of the colloidal dispersion can be efficiently used for preparation of cannabis loaded products. Nevertheless, for preparation of beverages with high content of biologically active cannabis components may be complicated since solubility in the oil phase may not be high enough to provide the desired concentration of cannabinoids in the prepared beverage while keeping the product stable and palatable. Additionally, terpenes presented in extract of cannabis, visibly improve solubility of cannabinoids while pure CBD, THC or other cannabinoids have much lower solubility. […] However, since cannabis terpenes are often associated with acrid and unpleasant taste and flavor, it is preferable to use purified cannabinoids with a potency (purity) of 90-100%.
# Practically all proposed SNEDS formulations of cannabinoids have oil phase consisting of food oils, mainly mono-di or triglycerides, such as medium chain triglycerides (MCT oil, coconut oil), fish oil, soy oil, olive oil, acetylated mono-and diglycerides, etc. The food oils have excellent safety profile and can provide a reasonable solubility of cannabinoids. […]
smiles,measurement,value
"C=C(C)[C@@H]1CCC(C)=C[C@H]1c1c(O)cc(CCCCC)cc1O [CBD, Cannabidiol]",solubility,25 to 36 mg/mL
